According to PMC9737391, “Trifluoromethylcinnamanilide Michael Acceptors for Treatment of Resistant Bacterial Infections” (International Journal of Molecular Sciences, 2022):
In brackets after ≈: the same amount, converted by molar mass.

Experiments:
[1] = Lipophilicity determination by RP-HPLC; format: physicochemical; settings: RP-HPLC, logarithm of capacity factor k
Protocol: It is evident from the graphs in Figure 1 that the correlation coefficients of the dependences of log k/log D6.5/log D7.4 have a value of r = 0.999 (n = 32), which means that the investigated compounds behave insignificantly differently in aqueous media with different pH. Moreover, lipophilicity was calculated as log P and Clog P using two prediction programs. […] Therefore, only log P values predicted by ACD/Percepta can be used for correlations with experimental values. These matches are shown in the graphs in Figure 2, and according to the correlation coefficient r~0.940 (n = 32), it can be argued that even the predicted lipophilicity values correlate with the experimentally measured ones. However, the largest variations were observed (no difference for series 1, 2) for compounds substituted with 2-Cl, 2-CF3, 2,5-Cl, 4-F, 4-CF3, and 3,5-F, 3,5-Cl. These are mainly substituents capable of forming hydrogen and other types of non-bonding interactions both with the surrounding environment and within the molecule. Overall, series 1 (3-CF3) is less lipophilic than series 2 (4-CF3), but the differences in the experimental data are insignificant. Unsubstituted derivatives 1a/2a are the least lipophilic compounds, while derivatives 1o/2o (3,5-Cl) and 1p/2p (3,5-CF3) are the most lipophilic compounds.
Experimental determination of lipophilicity values (log k, log D6.5, and log D7.4) was performed under the same conditions and on the same device as described by Strharsky et al..

[2] = test system: Staphylococcus aureus ATCC 29213; experiment: MIC, microtitration broth method; format: cell-based; settings: ATCC29213, S. aureus ATCC 29213
[3] = test system: methicillin-resistant S. aureus SA 3202 (MRSA1); experiment: MIC, microtitration broth method; format: cell-based; settings: Staphylococcus aureus; MRSA SA 3202
[4] = test system: methicillin-resistant S. aureus SA 630 (MRSA2); experiment: MIC, microtitration broth method; format: cell-based; settings: Staphylococcus aureus; MRSA SA 630
[5] = test system: methicillin-resistant S. aureus 63718 (MRSA3); experiment: MIC, microtitration broth method; format: cell-based; settings: Staphylococcus aureus; MRSA 63718
M. smegmatis ATCC 700084 = experiment: In vitro antimycobacterial evaluation (MIC); format: cell-based, Mycobacterium smegmatis; settings: Mycolicibacterium smegmatis, ATCC700084
[6] = test system: Staphylococcus aureus ATCC 29213; experiment: MBC, agar aliquot subculture method; format: cell-based; settings: ATCC29213, S. aureus ATCC 29213
[7] = test system: methicillin-resistant S. aureus SA 3202 (MRSA1); experiment: MBC, agar aliquot subculture method; format: cell-based; settings: Staphylococcus aureus; MRSA SA 3202
[8] = test system: methicillin-resistant S. aureus SA 630 (MRSA2); experiment: MBC, agar aliquot subculture method; format: cell-based; settings: Staphylococcus aureus; MRSA SA 630
[9] = test system: methicillin-resistant S. aureus 63718 (MRSA3); experiment: MBC, agar aliquot subculture method; format: cell-based; settings: Staphylococcus aureus; MRSA 63718
[10] = test system: human monocytic leukemia cell line THP-1; experiment: In vitro cell viability (cytotoxicity screening); format: cell-based; settings: 24 h, medium with 10% FBS, ± SD, n = 6
Protocol: The investigated anilides can be divided into three groups. […] Higher concentrations (than 10 or 30 µM) were not possible to evaluate due to precipitation of the tested compounds in water medium. Based on all these observations, it can be concluded that the high antimicrobial activity of 3,5-CF3-substituted compounds is associated with significant cytotoxic effect against eukaryotic cells. On the other hand, the other still effective compounds, especially agents 1j and 1o, have an insignificant toxic effect, which makes them interesting for further study.
Human monocytic leukemia THP-1 cells obtained from the European Collection of Cell Cultures (ECACC, Salisbury, UK) were used for in vitro antiproliferative assays. A recently described procedure was used.

S. aureus ATCC 29213 = experiment: MTT assay, inhibition of bacterial respiration; format: cell-based, Staphylococcus aureus
From the text: The MTT assay can be used to assess cell growth by measuring respiration. Respiratory activity of bacterial cells (which is finally reflected in their viability) less than 70% after exposure to the MIC values for each tested compound is considered as a positive result of this assay. This low level of cell oxidative metabolism indicates inhibition of cell growth by inhibition of respiration. The lowest multiples of MIC values that achieved more than 70% inhibition of S. aureus ATCC 29213 viability (%) are shown in Table 3.
The percent inhibition of respiration of S. aureus ATCC 29213 was determined through the MTT assay. The assay was performed as described recently. The percent viability is calculated through the comparison of a measured value and that of the uninhibited control: % viability = OD570E/OD570P × 100, where OD570E is the reading from the compound-exposed cells, while OD570P is the reading from the uninhibited cells (positive control). Cytotoxic potential is determined by a percent viability of <70% [46, 47].

[11] = test system: Enterococcus faecalis ATCC 29212; experiment: MIC, microtitration broth method; format: cell-based; settings: ATCC29212, E. faecalis reference strain
[12] = test system: vancomycin-resistant E. faecalis VRE 342B (VRE1); experiment: MIC, microtitration broth method; format: cell-based, Enterococcus faecalis
[13] = test system: vancomycin-resistant E. faecalis VRE 368 (VRE2); experiment: MIC, microtitration broth method; format: cell-based, Enterococcus faecalis
[14] = test system: vancomycin-resistant E. faecalis VRE 725B (VRE3); experiment: MIC, microtitration broth method; format: cell-based, Enterococcus faecalis
[15] = test system: Enterococcus faecalis ATCC 29212; experiment: MBC, agar aliquot subculture method; format: cell-based; settings: ATCC29212, E. faecalis reference strain
[16] = test system: vancomycin-resistant E. faecalis VRE 342B (VRE1); experiment: MBC, agar aliquot subculture method; format: cell-based, Enterococcus faecalis
[17] = test system: vancomycin-resistant E. faecalis VRE 368 (VRE2); experiment: MBC, agar aliquot subculture method; format: cell-based, Enterococcus faecalis
[18] = test system: vancomycin-resistant E. faecalis VRE 725B (VRE3); experiment: MBC, agar aliquot subculture method; format: cell-based, Enterococcus faecalis
[19] = test system: Mycobacterium marinum CAMP 5644; experiment: In vitro antimycobacterial evaluation (MIC); format: cell-based; settings: Mycobacterium marinum, CAMP5644, M. marinum CAMP 5644

Compound | log k [1] | MIC [2] [µM] | MIC [3] [µM] | MIC [4] [µM] | MIC [5] [µM] | MIC (M. smegmatis ATCC 700084) [µM] | MBC [6] [µM] | MBC [7] [µM] | MBC [8] [µM] | MBC [9] [µM] | Conc.: lowest multiple of MIC with at least 70% inhibition of respiratory activity (S. aureus ATCC 29213) | Conc.: the same concentration as multiple of MBC (S. aureus ATCC 29213) | melting point [°C] | also measured
O=C(/C=C/c1cccc(C(F)(F)F)c1)Nc1cccc(F)c1 [1c, (2E)-N-(3-Fluorophenyl)-3-[3-(trifluoromethyl)phenyl]prop-2-enamide] | 0.6333 | 12.9 (≈ 3.99 µg/mL) | 25.9 (≈ 8.01 µg/mL) | 12.9 (≈ 3.99 µg/mL) | 12.9 (≈ 3.99 µg/mL) | 51.7 (≈ 16 µg/mL) | 25.9 (≈ 8.01 µg/mL) | 25.9 (≈ 8.01 µg/mL) | 12.9 (≈ 3.99 µg/mL) | 12.9 (≈ 3.99 µg/mL) | 2 × MIC | 1 × MBC | 113 to 115 | IC50 [10]: > 30 µM
O=C(/C=C/c1cccc(C(F)(F)F)c1)Nc1cccc(Cl)c1 [1f, (2E)-N-(3-Chlorophenyl)-3-[3-(trifluoromethyl)phenyl]prop-2-enamide] | 0.8016 | 12.3 (≈ 4.01 µg/mL) | 6.14 (≈ 2 µg/mL) | 6.14 (≈ 2 µg/mL) | 6.14 (≈ 2 µg/mL) | 24.6 (≈ 8.01 µg/mL) | 12.3 (≈ 4.01 µg/mL) | 6.14 (≈ 2 µg/mL) | 6.14 (≈ 2 µg/mL) | 12.3 (≈ 4.01 µg/mL) | 1× MIC (1× MBC) | 1× MIC (1× MBC) | 126 to 128 | IC50 [10]: > 10 µM
O=C(/C=C/c1cccc(C(F)(F)F)c1)Nc1ccc(Cl)cc1 [1g, (2E)-N-(4-Chlorophenyl)-3-[3-(trifluoromethyl)phenyl]prop-2-enamide] | 0.7982 | 24.6 (≈ 8.01 µg/mL) | 12.3 (≈ 4.01 µg/mL) | 6.14 (≈ 2 µg/mL) | 12.3 (≈ 4.01 µg/mL) | 24.6 (≈ 8.01 µg/mL) | 49.1 (≈ 16 µg/mL) | 24.6 (≈ 8.01 µg/mL) | 6.14 (≈ 2 µg/mL) | 24.6 (≈ 8.01 µg/mL) | 4 × MIC | 2 × MBC | 162 to 164 | IC50 [10]: > 10 µM
O=C(/C=C/c1cccc(C(F)(F)F)c1)Nc1cccc(C(F)(F)F)c1 [1i, (2E)-N,3-bis[3-(Trifluoromethyl)phenyl]prop-2-enamide] | 0.8807 | 11.1 (≈ 3.99 µg/mL) | 11.1 (≈ 3.99 µg/mL) | 2.78 (≈ 0.999 µg/mL) | 2.78 (≈ 0.999 µg/mL) | 11.1 (≈ 3.99 µg/mL) | 22.3 (≈ 8.01 µg/mL) | 11.1 (≈ 3.99 µg/mL) | 2.78 (≈ 0.999 µg/mL) | 22.3 (≈ 8.01 µg/mL) | 1 × MIC | 0.5 × MBC |  | IC50 [10]: > 10 µM
O=C(/C=C/c1ccc(C(F)(F)F)cc1)Nc1ccc(Cl)cc1 [2g, (2E)-N-(4-Chlorophenyl)-3-[4-(trifluoromethyl)phenyl]prop-2-enamide] | 0.8054 |  |  |  |  |  |  |  |  |  |  |  | 185 to 187 | 
O=C(/C=C/c1ccc(C(F)(F)F)cc1)Nc1ccccc1C(F)(F)F [2h, (2E)-N-[2-(Trifluoromethyl)phenyl]-3-[4-(trifluoromethyl)phenyl]prop-2-enamide] | 0.5798 |  |  |  |  |  |  |  |  |  |  |  | 189 to 191 | 
O=C(/C=C/c1ccc(C(F)(F)F)cc1)Nc1ccc(C(F)(F)F)cc1 [2j, (2E)-N,3-bis[4-(Trifluoromethyl)phenyl]prop-2-enamide] | 0.9319 |  |  |  |  |  |  |  |  |  |  |  | 192 to 194 | 
O=C(/C=C/c1ccc(C(F)(F)F)cc1)Nc1ccc(F)cc1F [2k, (2E)-N-(2,4-Difluorophenyl)-3-[4-(trifluoromethyl)phenyl]prop-2-enamide] | 0.6011 |  |  |  |  |  |  |  |  |  |  |  | 141 to 143 | 
O=C(/C=C/c1ccc(C(F)(F)F)cc1)Nc1cc(F)cc(F)c1 [2l, (2E)-N-(3,5-Difluorophenyl)-3-[4-(trifluoromethyl)phenyl]prop-2-enamide] | 0.8253 |  |  |  |  |  |  |  |  |  |  |  | 188 to 190 | 
O=C(/C=C/c1ccc(C(F)(F)F)cc1)Nc1ccc(Cl)cc1Cl [2m, (2E)-N-(2,4-Dichlorophenyl)-3-[4-(trifluoromethyl)phenyl]prop-2-enamide] | 0.9735 |  |  |  |  |  |  |  |  |  |  |  | 188 to 190 | 
O=C(/C=C/c1ccc(C(F)(F)F)cc1)Nc1cc(Cl)ccc1Cl [2n, (2E)-N-(2,5-Dichlorophenyl)-3-[4-(trifluoromethyl)phenyl]prop-2-enamide] | 0.9583 |  |  |  |  |  |  |  |  |  |  |  | 180 to 182 | 
O=C(/C=C/c1ccc(C(F)(F)F)cc1)Nc1cc(Cl)cc(Cl)c1 [2o, (2E)-N-(3,5-Dichlorophenyl)-3-[4-(trifluoromethyl)phenyl]prop-2-enamide] | 1.2024 |  |  |  |  |  |  |  |  |  |  |  | 177 to 179 | 
CC1(C)S[C@@H]2[C@H](NC(=O)[C@H](N)c3ccccc3)C(=O)N2[C@H]1C(=O)O [AMP, ampicillin, reference compound] |  | 5.72 (≈ 2 µg/mL) | 45.8 (≈ 16 µg/mL) | 45.8 (≈ 16 µg/mL) | 45.8 (≈ 16 µg/mL) |  | > 5.72 | > 45.8 | > 45.8 | > 45.8 | 8× MIC (>8× MBC) | 8× MIC (>8× MBC) |  | MIC [11]: 2.81 µM (≈ 0.982 µg/mL); MIC [12]: 11.5 µM (≈ 4.02 µg/mL); MIC [13]: 11.5 µM (≈ 4.02 µg/mL); MIC [14]: 11.5 µM (≈ 4.02 µg/mL); MBC [15]: 2.81 µM (≈ 0.982 µg/mL); MBC [16]: 11.5 µM (≈ 4.02 µg/mL); MBC [17]: 11.5 µM (≈ 4.02 µg/mL); MBC [18]: 11.5 µM (≈ 4.02 µg/mL)
NNC(=O)c1ccncc1 [INH, isoniazid, reference compound] |  |  |  |  |  | 117 (≈ 16 µg/mL) |  |  |  |  |  |  |  | MIC [19]: 36.6 µM (≈ 5.02 µg/mL)
